Test results taken from patent US10668067B2, “Pyridine sulfonamides” (AMGEN INC., priority 2016, dated 2020).

Biological target: human Nav1.7 (Homo sapiens (Human), UniProt Q15858)
Test: Nav 1.7 In Vitro PX Assay (PatchXpress whole cell voltage clamp)
Type: cell-based
Conditions: in-vitro Nav 1.7 PX data
Method: HEK 293 cells stably transfected with human Nav1.7 were recorded in whole cell voltage clamp mode with the PatchXpress automated electrophysiology system (Molecular Devices, LLC, Sunnyvale, Calif.). Compound effects were measured on a partially inactivated state of the sodium channel. Cells were clamped to a holding potential yielding 20 to 50% inactivation. To elicit sodium current, channels were activated by pulsing to −10 mV for 20 msec. This voltage protocol was repeated at a rate of 0.1 Hz throughout the experiment. A single concentration of test compound was applied to cells for a duration of 3 minutes. Peak sodium current was measured at the end of the compound addition period to determine percent inhibition. Three to five cells were tested per concentration, and IC50 curves were fitted to percent inhibition as a function of concentration.

Sequence of human Nav1.7 (Q15858 whole entry): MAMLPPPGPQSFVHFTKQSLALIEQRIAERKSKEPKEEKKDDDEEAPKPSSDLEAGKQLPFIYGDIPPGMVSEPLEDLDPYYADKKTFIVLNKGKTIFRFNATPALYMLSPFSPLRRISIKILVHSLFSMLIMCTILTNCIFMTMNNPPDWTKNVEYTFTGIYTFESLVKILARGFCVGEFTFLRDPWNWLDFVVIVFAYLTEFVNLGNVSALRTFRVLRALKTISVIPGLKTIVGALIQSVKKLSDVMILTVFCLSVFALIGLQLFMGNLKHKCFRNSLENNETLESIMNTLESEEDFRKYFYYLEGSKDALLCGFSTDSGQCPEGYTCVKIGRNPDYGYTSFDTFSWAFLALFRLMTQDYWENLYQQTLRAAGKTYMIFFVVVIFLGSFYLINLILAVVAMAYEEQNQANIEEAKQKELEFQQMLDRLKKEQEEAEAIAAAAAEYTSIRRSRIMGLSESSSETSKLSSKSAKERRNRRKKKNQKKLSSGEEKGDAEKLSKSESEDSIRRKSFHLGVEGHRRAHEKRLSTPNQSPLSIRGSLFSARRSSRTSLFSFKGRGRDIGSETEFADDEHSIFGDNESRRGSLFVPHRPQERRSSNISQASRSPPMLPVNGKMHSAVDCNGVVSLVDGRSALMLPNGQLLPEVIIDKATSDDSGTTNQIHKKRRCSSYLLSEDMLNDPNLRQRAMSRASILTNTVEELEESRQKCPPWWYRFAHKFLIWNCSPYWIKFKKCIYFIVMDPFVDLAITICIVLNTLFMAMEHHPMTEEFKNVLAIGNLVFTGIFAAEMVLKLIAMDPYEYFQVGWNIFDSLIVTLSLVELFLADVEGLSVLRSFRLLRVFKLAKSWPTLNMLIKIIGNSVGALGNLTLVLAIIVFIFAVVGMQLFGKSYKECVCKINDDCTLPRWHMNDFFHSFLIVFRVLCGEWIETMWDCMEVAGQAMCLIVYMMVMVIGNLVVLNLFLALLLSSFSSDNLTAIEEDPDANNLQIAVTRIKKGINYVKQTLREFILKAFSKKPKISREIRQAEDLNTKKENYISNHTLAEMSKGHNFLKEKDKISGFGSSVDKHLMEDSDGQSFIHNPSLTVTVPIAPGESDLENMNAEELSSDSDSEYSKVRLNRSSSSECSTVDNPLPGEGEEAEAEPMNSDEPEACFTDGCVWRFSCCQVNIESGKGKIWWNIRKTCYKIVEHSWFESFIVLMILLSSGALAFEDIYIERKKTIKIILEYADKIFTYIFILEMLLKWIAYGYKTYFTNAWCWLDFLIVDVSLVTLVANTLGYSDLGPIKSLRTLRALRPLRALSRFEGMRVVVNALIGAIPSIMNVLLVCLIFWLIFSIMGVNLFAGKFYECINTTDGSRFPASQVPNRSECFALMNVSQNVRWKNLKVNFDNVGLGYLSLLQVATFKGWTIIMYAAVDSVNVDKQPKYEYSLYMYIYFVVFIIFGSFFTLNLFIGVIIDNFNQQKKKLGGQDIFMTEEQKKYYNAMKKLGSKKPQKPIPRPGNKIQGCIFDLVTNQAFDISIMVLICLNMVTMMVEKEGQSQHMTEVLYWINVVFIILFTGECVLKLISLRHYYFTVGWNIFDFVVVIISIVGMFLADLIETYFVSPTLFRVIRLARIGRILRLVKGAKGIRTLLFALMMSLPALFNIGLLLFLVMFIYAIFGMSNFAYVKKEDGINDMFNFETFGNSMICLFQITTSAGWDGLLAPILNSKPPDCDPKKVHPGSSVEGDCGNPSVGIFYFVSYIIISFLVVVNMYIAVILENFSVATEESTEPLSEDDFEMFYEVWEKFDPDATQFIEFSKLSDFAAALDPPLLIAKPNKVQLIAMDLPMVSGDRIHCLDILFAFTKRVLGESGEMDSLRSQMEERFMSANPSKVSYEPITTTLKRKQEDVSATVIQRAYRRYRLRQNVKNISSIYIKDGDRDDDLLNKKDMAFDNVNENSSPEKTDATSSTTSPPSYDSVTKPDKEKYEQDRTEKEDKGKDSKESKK

CNC(=O)N(c1ccc(S(=O)(=O)Nc2ccon2)cn1)c1cc(F)c(-c2ccc(Cl)c(C)c2)cc1OC [Example 1-1, 6-((4′-chloro-2-fluoro-5-methoxy-3′-methyl-4-biphenylyl)(methylcarbamoyl)amino)-N-3-isoxazolyl-3-pyridinesulfonamide]
IC50: 57 nM

CNC(=O)N(c1ccc(S(=O)(=O)Nc2cccnn2)cn1)c1cc(F)c(-c2ccc(Cl)c(C)c2)cc1OC [Example 1-2, 6-((4′-chloro-2-fluoro-5-methoxy-3′-methyl-4-biphenylyl)(methylcarbamoyl)amino)-N-3-pyridazinyl-3-pyridinesulfonamide]
IC50: 106 nM

CNC(=O)N(c1ccc(S(=O)(=O)Nc2cccnn2)cn1)c1cc(F)c(-c2cccc(C(F)(F)F)c2)cc1OC [Example 1-3, 6-((2-fluoro-5-methoxy-3′-(trifluoromethyl)-4-biphenylyl)(methylcarbamoyl)amino)-N-3-pyridazinyl-3-pyridinesulfonamide]
IC50: 40 nM

CNC(=O)N(c1ccc(S(=O)(=O)Nc2ccon2)cn1)c1cc(F)c(-c2cccc(C(F)(F)F)c2)cc1OC [Example 1-4, 6-((2-fluoro-5-methoxy-3′-(trifluoromethyl)-4-biphenylyl)(methylcarbamoyl)amino)-N-3-isoxazolyl-3-pyridinesulfonamide]
IC50: 33 nM

CNC(=O)N(c1ccc(S(=O)(=O)Nc2ccon2)cn1)c1cc(F)c(-c2cc(F)cc(Cl)c2)cc1OC [Example 1-5, 6-((3′-chloro-2,5′-difluoro-5-methoxy-4-biphenylyl)(methylcarbamoyl)amino)-N-3-isoxazolyl-3-pyridinesulfonamide]
IC50: 92 nM

CNC(=O)N(c1ccc(S(=O)(=O)Nc2ccon2)cn1)c1cc(F)c(-c2cc(Cl)cc(OC)c2)cc1OC [Example 1-6, 6-((3′-chloro-2-fluoro-5,5′-dimethoxy-4-biphenylyl)(methylcarbamoyl)amino)-N-3-isoxazolyl-3-pyridinesulfonamide]
IC50: 51 nM

CNC(=O)N(c1ccc(S(=O)(=O)Nc2ccon2)cn1)c1cc(F)c(-c2cc(OC)cc(OC(F)(F)F)c2)cc1OC [Example 1-7, 6-((2-fluoro-3′,5-dimethoxy-5′-(trifluoromethoxy)-4-biphenylyl)(methylcarbamoyl)amino)-N-3-isoxazolyl-3-pyridinesulfonamide]
IC50: 18 nM

CNC(=O)N(c1ccc(S(=O)(=O)Nc2ccon2)cn1)c1cc(F)c(-c2cccc(OC)c2)cc1OC [Example 1-8, 6-((2-fluoro-3′,5-dimethoxy-4-biphenylyl)(methylcarbamoyl)amino)-N-3-isoxazolyl-3-pyridinesulfonamide]
IC50: 206 nM

CNC(=O)N(c1ccc(S(=O)(=O)Nc2ccon2)cn1)c1cc(F)c(-c2cc(OC)cc(C(F)(F)F)c2)cc1OC [Example 1-9, 6-((2-fluoro-3′,5-dimethoxy-5′-(trifluoromethyl)-4-biphenylyl)(methylcarbamoyl)amino)-N-3-isoxazolyl-3-pyridinesulfonamide]
IC50: 18 nM

CNC(=O)N(c1ccc(S(=O)(=O)Nc2ccon2)cn1)c1cc(F)c(-c2ccc(Cl)c(Cl)c2)cc1OC [Example 1-10, 6-((3′,4′-dichloro-2-fluoro-5-methoxy-4-biphenylyl)(methylcarbamoyl)amino)-N-3-isoxazolyl-3-pyridinesulfonamide]
IC50: 9 nM

CNC(=O)N(c1ccc(S(=O)(=O)Nc2ccon2)cn1)c1cc(F)c(-c2ccc(Cl)c(C(F)(F)F)c2)cc1OC [Example 1-11, 6-((4′-chloro-2-fluoro-5-methoxy-3′-(trifluoromethyl)-4-biphenylyl)(methylcarbamoyl)amino)-N-3-isoxazolyl-3-pyridinesulfonamide]
IC50: 14 nM

CNC(=O)N(c1ccc(S(=O)(=O)Nc2ccon2)cn1)c1cc(F)c(-c2cccc(OCC(F)(F)F)c2)cc1OC [Example 1-12, 6-((2-fluoro-5-methoxy-3′-(2,2,2-trifluoroethoxy)-4-biphenylyl)(methylcarbamoyl)amino)-N-3-isoxazolyl-3-pyridinesulfonamide]
IC50: 85 nM

CNC(=O)N(c1ccc(S(=O)(=O)Nc2ccon2)cn1)c1cc(F)c(-c2cccc(C3CC3)c2)cc1OC [Example 1-13, 6-((3′-cyclopropyl-2-fluoro-5-methoxy-4-biphenylyl)(methylcarbamoyl)amino)-N-3-isoxazolyl-3-pyridinesulfonamide]
IC50: 46 nM

CNC(=O)N(c1ccc(S(=O)(=O)Nc2ccon2)cn1)c1cc(F)c(-c2cccc(OC(F)(F)F)c2)cc1OC [Example 1-14, 6-((2-fluoro-5-methoxy-3′-(trifluoromethoxy)-4-biphenylyl)(methylcarbamoyl)amino)-N-3-isoxazolyl-3-pyridinesulfonamide]
IC50: 17 nM

CNC(=O)N(c1ccc(S(=O)(=O)Nc2ccon2)cn1)c1cc(F)c(-c2ccc(C)c(F)c2)cc1OC [Example 1-15, 6-((2,3′-difluoro-5-methoxy-4′-methyl-4-biphenylyl)(methylcarbamoyl)amino)-N-3-isoxazolyl-3-pyridinesulfonamide]
IC50: 124 nM

CNC(=O)N(c1ccc(S(=O)(=O)Nc2ccon2)cn1)c1cc(F)c(-c2ccc(F)c(C)c2)cc1OC [Example 1-16, 6-((2,4′-difluoro-5-methoxy-3′-methyl-4-biphenylyl)(methylcarbamoyl)amino)-N-3-isoxazolyl-3-pyridinesulfonamide]
IC50: 61 nM

CNC(=O)N(c1ccc(S(=O)(=O)Nc2ccon2)cn1)c1cc(F)c(-c2ccc(C)c(Cl)c2)cc1OC [Example 1-17, 6-((3′-chloro-2-fluoro-5-methoxy-4′-methyl-4-biphenylyl)(methylcarbamoyl)amino)-N-3-isoxazolyl-3-pyridinesulfonamide]
IC50: 31 nM

CNC(=O)N(c1ccc(S(=O)(=O)Nc2ccon2)cn1)c1cc(F)c(-c2cc(C)cc(F)c2)cc1OC [Example 1-18, 6-((2,3′-difluoro-5-methoxy-5′-methyl-4-biphenylyl)(methylcarbamoyl)amino)-N-3-isoxazolyl-3-pyridinesulfonamide]
IC50: 146 nM

CNC(=O)N(c1ccc(S(=O)(=O)Nc2ccon2)cn1)c1cc(F)c(-c2cc(C)cc(Cl)c2)cc1OC [Example 1-19, 6-((3′-chloro-2-fluoro-5-methoxy-5′-methyl-4-biphenylyl)(methylcarbamoyl)amino)-N-3-isoxazolyl-3-pyridinesulfonamide]
IC50: 47 nM

CNC(=O)N(c1ccc(S(=O)(=O)Nc2ccon2)cn1)c1cc(F)c(-c2ccc(Cl)c(F)c2)cc1OC [Example 1-20, 6-((4′-chloro-2,3′-difluoro-5-methoxy-4-biphenylyl)(methylcarbamoyl)amino)-N-3-isoxazolyl-3-pyridinesulfonamide]
IC50: 50 nM

CNC(=O)N(c1ccc(S(=O)(=O)Nc2ccon2)cn1)c1cc(F)c(-c2ccc(F)c(Cl)c2)cc1OC [Example 1-21, 6-((3′-chloro-2,4′-difluoro-5-methoxy-4-biphenylyl)(methylcarbamoyl)amino)-N-3-isoxazolyl-3-pyridinesulfonamide]
IC50: 37 nM

CNC(=O)N(c1ccc(S(=O)(=O)Nc2ccon2)cn1)c1cc(F)c(-c2ccc(F)c(F)c2)cc1OC [Example 1-22, N-3-isoxazolyl-6-((methylcarbamoyl)(2,3′,4′-trifluoro-5-methoxy-4-biphenylyl)amino)-3-pyridinesulfonamide]
IC50: 199 nM

CNC(=O)N(c1ccc(S(=O)(=O)Nc2ccon2)cn1)c1cc(F)c(-c2cc(OC)c(F)c(OC)c2)cc1OC [Example 1-23, 6-((2,4′-difluoro-3′,5,5′-trimethoxy-4-biphenylyl)(methylcarbamoyl)amino)-N-3-isoxazolyl-3-pyridinesulfonamide]
IC50: 151 nM

CNC(=O)N(c1ccc(S(=O)(=O)Nc2ccon2)cn1)c1cc(F)c(-c2cc(Cl)c(F)c(OC)c2)cc1OC [Example 1-25, 6-((3′-chloro-2,4′-difluoro-5,5′-dimethoxy-4-biphenylyl)(methylcarbamoyl)amino)-N-3-isoxazolyl-3-pyridinesulfonamide]
IC50: 16 nM

CNC(=O)N(c1ccc(S(=O)(=O)Nc2ccon2)cn1)c1cc(F)c(-c2ccc(F)c(C(F)(F)F)c2)cc1OC [Example 1-26, 6-((2,4′-difluoro-5-methoxy-3′-(trifluoromethyl)-4-biphenylyl)(methylcarbamoyl)amino)-N-3-isoxazolyl-3-pyridinesulfonamide]
IC50: 12 nM

CNC(=O)N(c1ccc(S(=O)(=O)Nc2ccon2)cn1)c1cc(F)c(-c2ccc(F)c(OC(F)(F)F)c2)cc1OC [Example 1-27, 6-((2,4′-difluoro-5-methoxy-3′-(trifluoromethoxy)-4-biphenylyl)(methylcarbamoyl)amino)-N-3-isoxazolyl-3-pyridinesulfonamide]
IC50: 20 nM

CNC(=O)N(c1ccc(S(=O)(=O)Nc2ccon2)cn1)c1cc(Cl)c(-c2ccc(F)c(C)c2)cc1OC [Example 1-28, 6-((2-chloro-4′-fluoro-5-methoxy-3′-methyl-4-biphenylyl)(methylcarbamoyl)amino)-N-3-isoxazolyl-3-pyridinesulfonamide]
IC50: 58 nM

CNC(=O)N(c1ccc(S(=O)(=O)Nc2ccon2)cn1)c1cc(Cl)c(-c2ccc(Cl)c(C)c2)cc1OC [Example 1-29, 6-((2,4′-dichloro-5-methoxy-3′-methyl-4-biphenylyl)(methylcarbamoyl)amino)-N-3-isoxazolyl-3-pyridinesulfonamide]
IC50: 20 nM

CNC(=O)N(c1ccc(S(=O)(=O)Nc2ccon2)cn1)c1cc(Cl)c(-c2cccc(C(F)(F)F)c2)cc1OC [Example 1-31, 6-((2-chloro-5-methoxy-3′-(trifluoromethyl)-4-biphenylyl)(methylcarbamoyl)amino)-N-3-isoxazolyl-3-pyridinesulfonamide]
IC50: 16 nM
